Measurements taken from patent US20260256742A1, “ANDROGEN RECEPTOR ANTAGONISTS FOR THE TREATMENT OF PATIENTS WITH BIOCHEMICAL RECURRENCE OF HORMONE SENSITIVE PROSTATE CANCER” (BAYER CONSUMER CARE AG, priority 2023, published 2026).

How the values were obtained:
[1] = dog, in vivo
[2] = rats; cited from earlier work
[3] = target: Cytochrome P450 (CYP)3A4 (Homo sapiens, UniProt P08684); conditions: in vitro; cited from earlier work
[4] = all investigated species including man; cited from earlier work
[5] = target: T1, breast cancer resistance protein (BCRP) (Homo sapiens, UniProt Q9UNQ0); conditions: cited from earlier work
T1 sequence (Q9UNQ0 1-655): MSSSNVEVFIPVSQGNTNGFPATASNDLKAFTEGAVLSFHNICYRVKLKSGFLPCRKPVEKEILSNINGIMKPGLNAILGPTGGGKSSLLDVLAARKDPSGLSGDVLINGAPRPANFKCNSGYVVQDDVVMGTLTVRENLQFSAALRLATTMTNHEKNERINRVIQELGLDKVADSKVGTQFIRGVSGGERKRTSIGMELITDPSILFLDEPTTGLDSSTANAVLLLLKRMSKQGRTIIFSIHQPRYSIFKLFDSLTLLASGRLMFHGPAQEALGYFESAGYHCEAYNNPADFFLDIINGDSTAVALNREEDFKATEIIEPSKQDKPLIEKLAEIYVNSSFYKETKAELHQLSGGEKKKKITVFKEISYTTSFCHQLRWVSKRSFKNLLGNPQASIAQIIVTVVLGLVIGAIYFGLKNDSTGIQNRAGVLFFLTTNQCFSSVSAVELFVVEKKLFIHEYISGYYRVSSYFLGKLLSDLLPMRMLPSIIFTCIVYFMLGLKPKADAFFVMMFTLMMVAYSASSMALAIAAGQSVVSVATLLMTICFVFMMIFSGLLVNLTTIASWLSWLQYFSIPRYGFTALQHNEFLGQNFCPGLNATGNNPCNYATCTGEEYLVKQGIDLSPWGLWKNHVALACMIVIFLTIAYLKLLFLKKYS

[6] = target: T2, BCRP (Homo sapiens, UniProt Q9UNQ0); conditions: in vitro; cited from earlier work
T2 sequence (Q9UNQ0 1-655): T1 sequence (Q9UNQ0 1-655)

[7] = target: T3, organic anion transporter (OAT)3 (Homo sapiens, UniProt Q8TCC7); conditions: in vitro; cited from earlier work
T3 sequence (Q8TCC7 1-542): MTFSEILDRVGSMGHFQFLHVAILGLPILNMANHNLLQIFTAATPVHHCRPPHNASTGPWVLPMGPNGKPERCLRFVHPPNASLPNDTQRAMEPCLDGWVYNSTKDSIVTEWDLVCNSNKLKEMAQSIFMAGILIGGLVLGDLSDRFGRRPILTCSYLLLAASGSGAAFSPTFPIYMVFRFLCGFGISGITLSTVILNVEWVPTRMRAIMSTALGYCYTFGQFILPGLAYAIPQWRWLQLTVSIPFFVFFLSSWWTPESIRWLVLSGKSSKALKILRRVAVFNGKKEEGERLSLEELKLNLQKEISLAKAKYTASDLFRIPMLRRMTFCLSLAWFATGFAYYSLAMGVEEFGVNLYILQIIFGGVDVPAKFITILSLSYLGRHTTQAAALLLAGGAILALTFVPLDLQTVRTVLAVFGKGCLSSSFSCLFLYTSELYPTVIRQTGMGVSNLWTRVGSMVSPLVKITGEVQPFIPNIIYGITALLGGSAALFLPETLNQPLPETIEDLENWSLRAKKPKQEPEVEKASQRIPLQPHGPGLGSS

[8] = target: T4, OATP1B3 (Homo sapiens, UniProt Q9NPD5); conditions: in vitro; cited from earlier work
T4 sequence (Q9NPD5 1-702): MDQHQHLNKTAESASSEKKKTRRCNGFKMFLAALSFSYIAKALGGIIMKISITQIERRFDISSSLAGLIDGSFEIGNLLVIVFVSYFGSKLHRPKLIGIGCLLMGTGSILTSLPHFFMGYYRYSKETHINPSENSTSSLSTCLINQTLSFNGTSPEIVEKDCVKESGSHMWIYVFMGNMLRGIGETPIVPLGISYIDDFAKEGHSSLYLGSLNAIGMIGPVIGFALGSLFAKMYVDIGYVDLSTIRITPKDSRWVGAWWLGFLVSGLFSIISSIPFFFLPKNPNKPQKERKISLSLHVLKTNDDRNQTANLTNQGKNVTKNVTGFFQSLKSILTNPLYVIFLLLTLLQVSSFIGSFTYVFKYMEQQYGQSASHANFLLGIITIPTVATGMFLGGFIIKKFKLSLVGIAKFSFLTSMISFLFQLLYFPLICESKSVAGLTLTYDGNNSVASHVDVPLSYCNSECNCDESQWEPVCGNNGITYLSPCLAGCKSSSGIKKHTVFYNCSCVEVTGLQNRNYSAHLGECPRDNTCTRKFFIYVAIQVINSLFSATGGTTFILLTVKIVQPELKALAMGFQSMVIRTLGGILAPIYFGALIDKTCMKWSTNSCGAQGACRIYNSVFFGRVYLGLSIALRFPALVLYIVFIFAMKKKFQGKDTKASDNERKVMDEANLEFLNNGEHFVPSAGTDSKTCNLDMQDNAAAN

[9] = system: nmCRPC; conditions: in combination with ADT, patients with nmCRPC; cited from earlier work

Chain of Cytochrome P450 (CYP)3A4 (P08684 whole entry): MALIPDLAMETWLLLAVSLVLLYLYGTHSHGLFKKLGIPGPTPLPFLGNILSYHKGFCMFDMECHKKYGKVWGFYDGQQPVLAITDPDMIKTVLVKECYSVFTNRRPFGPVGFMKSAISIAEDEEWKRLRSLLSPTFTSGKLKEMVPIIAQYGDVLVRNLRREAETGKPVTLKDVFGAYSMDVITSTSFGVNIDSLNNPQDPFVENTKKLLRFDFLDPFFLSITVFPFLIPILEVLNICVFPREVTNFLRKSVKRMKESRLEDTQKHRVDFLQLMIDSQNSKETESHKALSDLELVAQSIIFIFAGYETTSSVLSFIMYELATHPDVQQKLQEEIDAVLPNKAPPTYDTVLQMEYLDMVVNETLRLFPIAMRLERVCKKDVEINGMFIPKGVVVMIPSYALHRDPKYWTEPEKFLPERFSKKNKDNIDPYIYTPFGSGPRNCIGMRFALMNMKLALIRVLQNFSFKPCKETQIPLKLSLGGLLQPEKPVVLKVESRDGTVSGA

Q: For `CC(O)c1cc(C(=O)N[C@@H](C)Cn2ccc(-c3ccc(C#N)c(Cl)c3)n2)[nH]n1` (some centres unmarked) [Darolutamide], which “additional changes to reproductive tissues” value [1] is on record?
A: The value was “testicular hypospermia, seminiferous tubule dilatation and degeneration”.

Q: And the “deaths during the treatment period” value [1]?
A: The value was “No deaths occurred”.

Q: What about the other adverse effects [1] of the same molecule?
A: Its other adverse effects is “No other adverse effects were observed”.

Q: What about the “reversibility of changes in the male reproductive organs” value [1] of the same molecule?
A: Its value is “reversed or partially resolved”.

Q: And the absorption [2]?
A: Its absorption is “complete and rapid absorption”.

Q: What about the bioavailability [2] of the same molecule?
A: The bioavailability was “high bioavailability”.

Q: And the main metabolic pathway [3]?
A: The main metabolic pathway was “mainly metabolized via oxidative biotransformation catalyzed by Cytochrome P450 (CYP)3A4”.

Q: And the “major metabolites observed in plasma” value [4]?
A: The value was “Only one major metabolite, keto-darolutamide”.

Q: And the “substrate for BCRP” value [5]?
A: The value was “substrate”.

Q: And the “inhibition of BCRP-mediated transport” value [6]?
A: Its value is “observed”.

Q: What about the “inhibition of OAT3-mediated transport” value [7] of the same molecule?
A: Its value is “observed”.

Q: And the “inhibition of OATP1B3-mediated transport” value [8]?
A: Its value is “observed”.

Q: What about the “metastatic free survival (MFS)” value [9] of the same molecule?
A: Its value is “significantly increased”.

Q: What about the “overall survival (OS)” value [9] of the same molecule?
A: Its value is “significantly increased”.
